Values belong to the molecule of their own block, whether it stands above or below them.
Key:
[1] = molecular target: T1, Mineralocorticoid receptor (Homo sapiens) (UniProt P08235); experiment: Antagonist activity against human mineralocorticoid receptor as displacement of radioligand; type: functional
T1 sequence (whole entry): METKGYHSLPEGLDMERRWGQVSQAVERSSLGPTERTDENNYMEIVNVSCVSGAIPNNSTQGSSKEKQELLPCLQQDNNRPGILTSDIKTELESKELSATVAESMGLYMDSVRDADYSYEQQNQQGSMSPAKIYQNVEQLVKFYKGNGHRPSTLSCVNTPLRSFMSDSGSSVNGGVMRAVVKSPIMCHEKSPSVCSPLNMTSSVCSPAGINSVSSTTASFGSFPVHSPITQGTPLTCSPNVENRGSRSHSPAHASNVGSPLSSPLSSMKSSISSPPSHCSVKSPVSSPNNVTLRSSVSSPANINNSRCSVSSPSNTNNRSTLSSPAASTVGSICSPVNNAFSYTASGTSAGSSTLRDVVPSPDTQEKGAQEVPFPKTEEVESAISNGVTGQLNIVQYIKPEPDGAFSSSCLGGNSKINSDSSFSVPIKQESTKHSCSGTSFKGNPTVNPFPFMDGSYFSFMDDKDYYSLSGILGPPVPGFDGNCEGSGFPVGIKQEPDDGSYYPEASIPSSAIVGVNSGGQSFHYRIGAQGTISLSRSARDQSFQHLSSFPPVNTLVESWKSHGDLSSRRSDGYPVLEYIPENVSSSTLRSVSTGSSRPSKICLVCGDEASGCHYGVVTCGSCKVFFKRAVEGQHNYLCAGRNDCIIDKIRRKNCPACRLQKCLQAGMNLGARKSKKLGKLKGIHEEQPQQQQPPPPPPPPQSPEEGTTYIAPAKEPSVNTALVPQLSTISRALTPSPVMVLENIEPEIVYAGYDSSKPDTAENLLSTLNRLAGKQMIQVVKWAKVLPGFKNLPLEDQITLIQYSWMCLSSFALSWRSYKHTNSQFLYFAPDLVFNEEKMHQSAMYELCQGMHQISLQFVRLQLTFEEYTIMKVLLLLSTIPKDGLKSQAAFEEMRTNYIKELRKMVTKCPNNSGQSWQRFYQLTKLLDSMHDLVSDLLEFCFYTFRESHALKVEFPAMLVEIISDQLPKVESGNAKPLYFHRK

[2] = molecular target: T2, Progesterone receptor (Homo sapiens) (UniProt P06401); experiment: Antagonist activity against human Progesterone receptor
T2 sequence (whole entry): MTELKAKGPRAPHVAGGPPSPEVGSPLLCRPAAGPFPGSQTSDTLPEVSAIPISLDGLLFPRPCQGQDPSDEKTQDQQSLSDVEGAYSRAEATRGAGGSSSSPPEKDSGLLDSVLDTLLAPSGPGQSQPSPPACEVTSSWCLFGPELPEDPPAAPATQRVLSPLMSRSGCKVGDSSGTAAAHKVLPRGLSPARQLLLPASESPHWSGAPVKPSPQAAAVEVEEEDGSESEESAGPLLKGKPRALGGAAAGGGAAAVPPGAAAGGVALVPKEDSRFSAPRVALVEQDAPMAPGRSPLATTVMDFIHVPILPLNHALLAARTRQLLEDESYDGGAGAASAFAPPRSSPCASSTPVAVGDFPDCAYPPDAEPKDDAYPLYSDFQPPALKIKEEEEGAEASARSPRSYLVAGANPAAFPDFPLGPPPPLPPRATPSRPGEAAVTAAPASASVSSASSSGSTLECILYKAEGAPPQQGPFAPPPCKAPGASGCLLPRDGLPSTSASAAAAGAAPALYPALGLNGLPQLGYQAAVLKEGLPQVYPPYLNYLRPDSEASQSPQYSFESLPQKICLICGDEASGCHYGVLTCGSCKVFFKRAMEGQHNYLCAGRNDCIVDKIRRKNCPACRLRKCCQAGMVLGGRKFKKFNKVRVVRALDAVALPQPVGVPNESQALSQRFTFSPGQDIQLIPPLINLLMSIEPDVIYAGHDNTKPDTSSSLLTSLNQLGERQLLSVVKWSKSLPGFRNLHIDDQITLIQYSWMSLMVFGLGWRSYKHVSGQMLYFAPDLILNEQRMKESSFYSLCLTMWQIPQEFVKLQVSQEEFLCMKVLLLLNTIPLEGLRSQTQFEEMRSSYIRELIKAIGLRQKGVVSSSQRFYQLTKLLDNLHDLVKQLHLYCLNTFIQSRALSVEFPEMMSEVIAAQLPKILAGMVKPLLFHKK

[3] = molecular target: T2, Progesterone receptor (Homo sapiens)
Description: (§1) Antagonist activity against human Progesterone receptor by displacement of radioligand

[4] = molecular target: T2, Progesterone receptor (Homo sapiens); remark: listed apart in the source
Description: as §1

[5] = molecular target: T2, Progesterone receptor (Homo sapiens); remark: listed apart in the source
Description: as §1

Kif [1]: > 1000 nM
Kif [2]: > 1000 nM
Compound: CC#C[C@@]1(O)CC[C@@]2(Cc3ccccc3)c3ccc(O)cc3CC[C@@H]2C1

Kif [3]: > 1000 nM
Compound: O=C1CC[C@@]2(Cc3ccccc3)c3ccc(O)cc3CC[C@@H]2C1

Compound: CC#C[C@]1(O)CCC2C3CCC4=CC(=O)CC[C@]4(Cc4ccc(C)cc4)C3=CC[C@@]21C (stereo not given in full)
Kif [4]: > 1000 nM

Compound: Oc1ccc2c(c1)CC[C@@H]1C[C@@](O)(C#CCl)CC[C@@]21Cc1ccccc1
Kif [5]: > 1000 nM

From ChEMBL document CHEMBL1135457 (J Med Chem, 2002)
